Test results from the NIST ThermoML archive (doi:10.1021/je8009336).

How the values were obtained:
[1] = xn = mol fraction of the nth substance listed; conditions: 313.15 K, 101 kPa, Liquid; for speed of sound: Vibrating Tube Densimeter; for mass density: Vibrating tube method
[2] = refractive index (Na D-line) (dimensionless); xn = mol fraction of the nth substance listed; conditions: 313.15 K, 101 kPa, Liquid, Standard Abbe refractometry

C1CCCC1 [cyclopentane] + CCc1ccccc1
Conditions | mass density, [1] [kg/m3] | refractive index, [2] | speed of sound, [1] [m/s]
x1 = 0.0393 | 845.5 | 1.48234 | 1251.9
x1 = 0.083 | 841.2 | 1.47928 | 1246.4
x1 = 0.1874 | 830.5 | 1.4714 | 1232.9
x1 = 0.2847 | 820 | 1.46405 | 1219.9
x1 = 0.3689 | 810.5 | 1.45715 | 1209.3
x1 = 0.541 | 789.9 | 1.44226 | 1186.8
x1 = 0.6281 | 778.7 | 1.43421 | 1175.5
x1 = 0.687 | 770.9 | 1.42853 | 1168
x1 = 0.7988 | 755.3 | 1.41702 | 1154
x1 = 0.898 | 740.8 | 1.40651 | 1141.9
x1 = 0.9475 | 733.2 | 1.40072 | 1135.9
x1 = 1 | 725 | 1.39456 | 1130

C1CCCC1 [cyclopentane] + Cc1ccccc1
Conditions | mass density, [1] [kg/m3] | refractive index, [2] | speed of sound, [1] [m/s]
x1 = 0.0418 | 843.6 | 1.48201 | 1235.6
x1 = 0.0924 | 838 | 1.47801 | 1228.7
x1 = 0.1907 | 826.8 | 1.46979 | 1215.8
x1 = 0.2717 | 817.3 | 1.46313 | 1205.2
x1 = 0.3579 | 807 | 1.45562 | 1194.8
x1 = 0.4944 | 790.4 | 1.44336 | 1178.6
x1 = 0.5862 | 778.9 | 1.43503 | 1168.4
x1 = 0.6895 | 765.8 | 1.42526 | 1157.4
x1 = 0.7951 | 752.2 | 1.41512 | 1147.3
x1 = 0.8958 | 738.9 | 1.40537 | 1138.3
x1 = 0.9456 | 732.3 | 1.40037 | 1134.2
x1 = 1 | 725 | 1.39456 | 1130

C1CCCC1 [cyclopentane] + c1ccccc1
Conditions | mass density, [1] [kg/m3] | refractive index, [2] | speed of sound, [1] [m/s]
x1 = 0.0366 | 852 | 1.48417 | 1224.4
x1 = 0.0941 | 843.4 | 1.47833 | 1215.7
x1 = 0.1945 | 828.6 | 1.46795 | 1200.6
x1 = 0.2706 | 817.8 | 1.46049 | 1190.2
x1 = 0.3937 | 800.7 | 1.44843 | 1175.5
x1 = 0.4893 | 787.8 | 1.43934 | 1165
x1 = 0.5917 | 774.4 | 1.42988 | 1155.3
x1 = 0.6893 | 762.1 | 1.4211 | 1147.2
x1 = 0.7983 | 748.6 | 1.41158 | 1139.7
x1 = 0.8971 | 736.8 | 1.40315 | 1134.2
x1 = 0.9471 | 731 | 1.39904 | 1132
x1 = 1 | 725 | 1.39456 | 1130
